Data set [1] has as its target T1, steroid sulphatase (Homo sapiens, UniProt P08842).
T1 sequence (P08842 22-583): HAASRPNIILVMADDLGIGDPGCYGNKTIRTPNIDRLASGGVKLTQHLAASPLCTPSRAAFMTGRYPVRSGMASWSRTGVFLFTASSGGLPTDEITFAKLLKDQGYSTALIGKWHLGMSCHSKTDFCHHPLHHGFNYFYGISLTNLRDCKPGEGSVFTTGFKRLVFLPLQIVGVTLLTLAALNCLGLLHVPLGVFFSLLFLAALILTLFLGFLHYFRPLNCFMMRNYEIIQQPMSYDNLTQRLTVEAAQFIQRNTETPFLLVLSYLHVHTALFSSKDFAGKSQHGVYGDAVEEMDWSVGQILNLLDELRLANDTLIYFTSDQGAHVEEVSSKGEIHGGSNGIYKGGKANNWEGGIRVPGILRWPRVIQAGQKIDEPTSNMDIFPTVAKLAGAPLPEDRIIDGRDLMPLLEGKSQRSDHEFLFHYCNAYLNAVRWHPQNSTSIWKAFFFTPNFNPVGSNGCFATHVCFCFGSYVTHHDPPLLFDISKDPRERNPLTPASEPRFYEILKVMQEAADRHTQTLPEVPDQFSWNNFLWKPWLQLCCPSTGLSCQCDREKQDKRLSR
The settings on record: compared with EMATE, cited from earlier work; for E1-STS inactivation: 3-O-atom replaced by other heteroatoms.

Data set [2] relates to rats. The settings on record: cited from earlier work.
Data set [3] has as its system T47D cells. The data set is described as follows: Effect of Halo-EMATEs on T47D cell growth (plate assay). The settings on record: for inhibition at 1 µM / inhibition at 10 µM: Homo sapiens, 24 h. Also noted: key to Morphology: +: has effect on cell morphology. Format: cell-based. The protocol:
Effect of Halo-EMATES on T47D Cell Growth (Plate Assay)
T47D receptor positive breast cancer cells were seeded into a 96 well cell culture plate and allowed to grow until approximately 70% confluent. Cells were treated with either vehicle (controls, tetrahydrofuran in medium) or halo-EMATEs (1 or 10 μM) and cultured for a further 24 h. At the end of this period effects of the drugs on cell numbers were determined using a microtitre plate assay (Cell Titre 96 cell proliferation assay, Promega). In this assay the conversion of substrate by untreated cells at the end of the culture period was set at 100%.

Data set [4] concerns the target T2, steroid sulphatase (STS) (Homo sapiens, UniProt P08842).
T2 construct: Placental microsomes were obtained by centrifugation of the resulting supernatant at 100,000×g for 1 h; from tissue; host or cells: human placenta (microsomes)
T2 sequence (P08842 22-583): T1 sequence (P08842 22-583)
The data set can be described thus: STS inhibition, IC50 (protocol not given). Format: biochemical. The settings on record: assay not given. As to the method: Sulphatase-positive human placenta from normal term pregnancies are thoroughly minced with scissors and washed once with cold phosphate buffer (pH 7.4, 50 mM) then re-suspended in cold phosphate buffer (5 ml/g tissue). Homogenisation is accomplished with an Ultra-Turrax homogeniser, using three 10 second bursts separated by 2 minute cooling periods in ice. Nuclei and cell debris are removed by centrifuging (4° C.) at 2000 g for 30 minutes and portions (2 ml) of the supernatant are stored at […] The protein concentration of the supernatants is determined by the method of Bradford (Anal. Biochem., 72, 248-254 (1976)).
Incubations (1 ml) are carried out using a protein concentration of […], substrate concentration of […] [6,7-3H]oestrone-3-sulphate (specific activity 60 Ci/mmol from New England Nuclear, Boston, Mass., U.S.A.) and an incubation time of 20 minutes at 37° C. If necessary eight concentrations of compounds are employed: 0 (i.e. control); 0.05 mM; 0.1 mM; 0.2 mM; 0.4 mM; 0.6 mM; 0.8 mM; 1.0 mM. After incubation each sample is cooled and the medium (1 ml) was pipetted into separate tubes containing [14C]oestrone (7×10^3 dpm) (specific activity 97 Ci/mmol from Amersham International Radiochemical Centre, Amersham, U.K.). The mixture is shaken thoroughly for 30 seconds with toluene (5 ml). Experiments have shown that >90% [14C]oestrone and <0.1% [3H]oestrone-3-sulphate is removed from the aqueous phase by this treatment. A portion (2 ml) of the organic phase was removed, evaporated and the 3H and 14C content of the residue determined by scintillation spectrometry. The mass of oestrone-3-sulphate hydrolysed is calculated from the 3H counts obtained (corrected for the volumes of the medium and organic phase used, and for recovery of [14C]oestrone added) and the specific activity of the substrate.
A sulphatase—positive human placenta was used as a source of placental microsomes. Tissue was homogenised and nuclei and cell debris removed by centrifugation at 2000×g for 30 min. Placental microsomes were obtained by centrifugation of the resulting supernatant at 100,000×g for 1 h.
For inhibition studies placental microsomes (125 μg/ml) were incubated in the absence or presence of inhibitors (1 pm-1.0 μM) with ^3H estrone sulphate (E1S, 2×10^5 dpm adjusted to 20 μM with unlabelled E1S for 60 mins. [4-^14C E1] (7×10^3 dpm) was added to correct for procedural losses and free and sulphated steroids separated by solvent partition using toluene. A portion of the solvent was removed and the ^3H and ^14C content determined by liquid scintillation spectrometry.

Data set [5] relates to MCF-7 cells. The data set is described as follows: Plate Assay in MCF-7 cells. As to conditions: Homo sapiens, MCF7. Format: cell-based.
For data set [6] the following is noted: cited from earlier work.
Data set [7] concerns the target T3, E1-STS (Homo sapiens, UniProt P08842).
T3 construct: endogenous in cells; host or cells: MCF-7
T3 sequence (P08842 22-583): T1 sequence (P08842 22-583)
The settings on record: intact MCF-7 cells, 0.1 mM; cited from earlier work.

In the case of `COc1cc2c(cc1OS(N)(=O)=O)CC[C@@H]1[C@@H]2CC[C@]2(C)C(=O)CC[C@@H]12` [2-methoxyoestrone-3-O-sulphamate], the “potency as steroid sulphatase inhibitor” value in data set [1] is on record as “equipotent with EMATE”. Further, the oestrogenicity result in data set [2] (rat, in vivo) is given as “devoid of oestrogenicity”.

On to `C[C@]12CC[C@@H]3c4cc(Br)c(OS(N)(=O)=O)cc4CC[C@H]3[C@@H]1CCC2=O` [Compound 4, 2-Bromooestrone 3-O-sulphamate], for which, in data set [3], the Morphology result is recorded as “+”. The compound further displayed an IC50 in data set [4] of 1.65 nM. This compound also registered an inhibition at 10 µM in data set [5] of 33%.

Take `C[C@]12CC[C@@H]3c4cc(I)c(OS(N)(=O)=O)cc4CC[C@H]3[C@@H]1CCC2=O` [Compound 7, 2-Iodooestrone 3-O-sulphamate]: the Morphology result in data set [3] is given as “+”. In data set [4], this compound had an IC50 of 6.1 nM. The inhibition at 10 µM in data set [5] was determined as 25%.

For the compound `C[C@]12CC[C@@H]3c4cc(Cl)c(OS(N)(=O)=O)cc4CC[C@H]3[C@@H]1CCC2=O` [Compound 10, 2-Chloroestrone 3-O-sulphamate], in data set [3], the Morphology result is listed as “+”, the inhibition at 1 µM came out at 1% and at 10 µM the inhibition was 7.5%. In data set [4], half-maximal inhibition (IC50) required 0.8 nM. Moreover, 10 µM produced 35% inhibition in data set [5].

For the compound `C[C@]12CCC3c4cc(F)c(OS(N)(=O)=O)cc4CCC3C1CCC2=O` (stereo partly shown) [Compound 13, 2-Fluorooestrone-3-O-sulphamate], in data set [3], the Morphology entry is reported as “+”, the inhibition at 1 µM was below 1% and the inhibition at 10 µM was determined as 30%. Besides, in data set [4], the IC50 was 5.6 nM.

Consider `C[C@]12CC[C@@H]3c4ccc(OS(=O)(=O)O)cc4CC[C@H]3[C@@H]1CCC2=O` [Compound E1S, oestrone sulphate], for which the half-life in blood in data set [6] was 10 to 12 h.

On to `CC12CCC3c4ccc(OS(N)(=O)=O)cc4CCC3C1CCC2=O` (stereo not shown) [EMATE, oestrone-3-O-sulphamate], for which the “inhibition of E1-STS activity” value in data set [7] was “more than 99%”. Besides, in data set [2] (rats, oral), the “oral uterotrophic activity relative to estradiol” value is 100 times.

oestrone-3-N-sulphamate: the E1-STS inactivation entry in data set [1] is “weaker non-time-dependent inactivators”.

For oestrone-3-S-sulphamate, the E1-STS inactivation entry in data set [1] was “weaker non-time-dependent inactivators”.

The record behind these values is patent US6858597B2, “Halogenated sulphamate-, phosphonate-, thiophosphonate-, sulphonate- and sulphonamide- compounds as inhibitors of steroid sulphatase” (Sterix Limited, priority 1999, dated 2005).
